Data: PMC7408066, “Attenuation of Inflammatory Symptoms by Icariside B2 in Carrageenan and LPS-Induced Inflammation Models via Regulation of MAPK/NF-κB Signaling Cascades” (Biomolecules, 2020)

Target: T1, COX-2 (Ovis aries, UniProt P79208)
T1 construct: gene PTGS2; ovine purified COX-2
T1 sequence (P79208 17-603): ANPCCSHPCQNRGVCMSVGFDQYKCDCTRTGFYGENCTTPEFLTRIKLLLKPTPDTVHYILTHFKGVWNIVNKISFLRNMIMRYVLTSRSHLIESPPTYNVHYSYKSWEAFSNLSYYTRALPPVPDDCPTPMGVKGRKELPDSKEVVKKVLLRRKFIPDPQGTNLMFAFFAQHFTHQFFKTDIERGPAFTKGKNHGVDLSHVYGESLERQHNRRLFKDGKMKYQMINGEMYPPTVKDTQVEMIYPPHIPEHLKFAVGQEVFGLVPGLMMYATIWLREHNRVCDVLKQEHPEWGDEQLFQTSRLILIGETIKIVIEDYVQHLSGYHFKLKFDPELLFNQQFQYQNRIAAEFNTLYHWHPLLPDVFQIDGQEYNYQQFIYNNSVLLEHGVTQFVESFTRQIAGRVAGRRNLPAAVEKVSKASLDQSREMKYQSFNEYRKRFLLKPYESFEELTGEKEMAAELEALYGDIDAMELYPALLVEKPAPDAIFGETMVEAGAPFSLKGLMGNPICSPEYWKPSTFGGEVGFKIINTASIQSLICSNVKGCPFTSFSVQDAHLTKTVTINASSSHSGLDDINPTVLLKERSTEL
Assay: Cayman colorimetric COX (ovine) inhibitor screening assay, purified enzyme
Assay type: biochemical

IC50: 7.8 ± 0.26 µM
SMILES: CC(=O)/C=C/C12OC1(C)CC(OC1OC(CO)C(O)C(O)C1O)CC2(C)C (stereo not shown) [ICSB, icariside B2]
